Patent US6410533B1, “Antibacterial compounds” (Genzyme Corporation, priority 2000, dated 2002)
In brackets after ≈: the same amount, converted by molar mass. Like-named read-outs stand apart in the source and are kept apart here.

Legend:
[1] = tested on: Staphylococcus aureus bacteria (ATCC 9604 SV); test: Minimal inhibitory concentration (MIC), broth microdilution; type: cell-based; details: 24 h at 37° C.
Description: Minimal inhibitory concentrations (MICs) for Staphylococcus aureus bacteria (ATCC 9604 SV) were determined by broth microdilution methodology following National Committee for Clinical Laboratory Standards. In the MIC determinations, the compounds were incorporated into Mueller-Hinton broth (Becton Dickinson Microbiology systems, Cockeyville, Md.) at a series of concentrations. After the test organism was grown overnight in TB broth, the broths were adjusted to the turbidity equivalent to 0.05 McFarland standard. The suspensions were diluted twenty-fold into the broth containing the compounds. […] In the IC50 determination, the method was modified to allow the rapid growth of the organisms. The inoculum suspensions were adjusted to 0.1 McFarland standard and then diluted two-fold into the wells containing TB broth and the compounds. After three to five hours incubation at 37° C., the turbidity was measured at 550 nm and inhibitory activity was defined as the concentration of antimicrobial agent that inhibits 50% growth of the organism in the microdilution wells.

[2] = tested on: methicillin-resistant Staphylococcus aureus (ATCC 33591); test: In vivo mouse intraperitoneal infection, mortality and % survivors over 7 days; details: 1 and 5 h post inoculation, MRSA ATCC 33591 i.p., ICR mice
Description: Ten male ICR mice weighing 20 grams were inoculated intraperitoneally with an LD90-100 dose (2-3×10^7 CFU/mouse) of methicillin-resistant Staphylococcus aureus (ATCC 33591) in brain-heart infusion broth containing 5% mucin. Compounds were suspended in a vehicle containing 1% cremophore EL (Sigma) in normal saline and were administered subcutaneously in a volume of 0.4 ml per mouse either 1 hour following bacterial inoculation or 1 and 5 hours post inoculation. Animals receiving two doses of drug were injected subcutaneously in the hindquarter one hour post-innoculation and in the neck area, 5 hours post-innoculation. Deaths occurring during the subsequent 7 days are recorded. Mortality and % survivor endpoints are calculated.

[3] = Staphylococcus aureus ATCC 9604 SV
[4] = ATCC9604, Staphylococcus aureus ATCC 9604 SV, read-out: MIC

Row | Structure (SMILES) | MIC [1, 3] [µg/mL] | further results
1 | CCOC(=O)N1CCC(=C2C(=O)N(c3cc(Cl)cc(Cl)c3)N=C2c2ccccc2)CC1 [Compound 41] | 12.5 (≈ 27.3 µM) | –
2 | Cn1cc(C=C2C(=O)N(c3cc(Cl)cc(Cl)c3)N=C2c2ccccc2)c2ccccc21 [Compound 43] | 0.400 (≈ 0.896 µM) | –
3 | O=C1C(=Cc2ccco2)C(c2ccccc2)=NN1c1cc(Cl)cc(Cl)c1 [Compound 35] | >12.5 | –
4 | CN(C)C=C1C(=O)N(c2cc(Cl)cc(Cl)c2)N=C1c1ccccc1 [Compound 9, 2-(3,5-Dichloro-phenyl)-4-dimethylaminomethylene-5-phenyl-2,4-dihydro-pyrazol-3-one] | – | MIC [1, 4]: > 9.01 µg/mL
5 | CC1=NN(c2cc(Cl)cc(Cl)c2)C(=O)C1Cc1ccccc1 (stereo not drawn) [Compound 21] | 8.33 (≈ 25 µM) | –
6 | O=C1CC(Cc2ccccc2)=NN1c1cc(Cl)cc(Cl)c1 [Compound 65] | 0.958 (≈ 3 µM) | In Vivo, double dose (% of mice rescued) ([2]; 2 × 2 mg/kg s.c.): 0% @ 2 × 2 mg/kg; In Vivo, double dose (% of mice rescued) ([2]; 2 × 20 mg/kg s.c.): 0% @ 2 × 20 mg/kg
7 | CCC1=NN(c2cc(Cl)cc(Cl)c2)C(=O)C1=C1C(=O)Nc2ccccc21 [Compound 56] | 1.50 (≈ 3.88 µM) | In Vivo, double dose (% of mice rescued) ([2]; 2 × 2 mg/kg s.c.): 0% @ 2 × 2 mg/kg; In Vivo, double dose (% of mice rescued) ([2]; 2 × 20 mg/kg s.c.): 0% @ 2 × 20 mg/kg
8 | O=C(C=C1C(=O)N(c2cc(Cl)cc(Cl)c2)N=C1c1ccccc1)c1ccccc1 [Compound 26] | >12.5 | –
9 | O=C1CC(C(F)(F)F)=NN1c1cc(Cl)cc(Cl)c1 [Compound 14] | 3.56 (≈ 12 µM) | –
10 | CCC1=NN(c2cc(Cl)cc(Cl)c2)C(=O)C1 [Compound 17] | 1.54 (≈ 5.99 µM) | In Vivo, double dose (% of mice rescued) ([2]; 2 × 2 mg/kg s.c.): 12.5% @ 2 × 2 mg/kg; In Vivo, double dose (% of mice rescued) ([2]; 2 × 20 mg/kg s.c.): 25% @ 2 × 20 mg/kg
11 | CCC1C(=O)N(c2cc(Cl)cc(Cl)c2)N=C1C (stereo not drawn) [Compound 20] | >6.78 | –
12 | O=C(NCc1cccc(Cl)c1)Nc1nc(-c2ccc(Cl)cc2Cl)cs1 [Compound 177] | 5.16 (≈ 12.5 µM) | –
13 | CCC1=NN(c2cc(Cl)cc(Cl)c2)C(=O)C1=Cc1cccc(C(=O)N2CCOCC2)c1 [Compound 69] | 11.5 (≈ 25.1 µM) | –
14 | CSc1ccc(C=C2C(=O)N(c3cc(Cl)cc(Cl)c3)N=C2c2ccccc2)cc1 [Compound 38] | 6.25 (≈ 14.2 µM) | –
15 | O=C(NCc1cccc(Cl)c1)Nc1nc(-c2ccc(F)cc2F)cs1 [Compound 178] | 9.50 (≈ 25 µM) | –
16 | O=C1CC(c2cccc(F)c2)=NN1c1cc(Cl)cc(Cl)c1 [Compound 15] | 0.485 (≈ 1.5 µM) | In Vivo, double dose (% of mice rescued) ([2]; 2 × 2 mg/kg s.c.): 0% @ 2 × 2 mg/kg; In Vivo, double dose (% of mice rescued) ([2]; 2 × 20 mg/kg s.c.): 0% @ 2 × 20 mg/kg
17 | O=C1C(=Cc2ccncc2)C(c2ccccc2)=NN1c1cc(Cl)cc(Cl)c1 [Compound 19] | 1.15 (≈ 2.92 µM) | In Vivo, double dose (% of mice rescued) ([2]; 2 × 2 mg/kg s.c.): 0% @ 2 × 2 mg/kg; In Vivo, double dose (% of mice rescued) ([2]; 2 × 20 mg/kg s.c.): 25% @ 2 × 20 mg/kg
18 | Cc1cc(-c2csc(NC(=O)NCc3cccc(Cl)c3)n2)ccc1F [Compound 180] | 9.40 (≈ 25 µM) | –
19 | CCCC1=NN(c2cc(Cl)cc(Cl)c2)C(=O)C1 [Compound 10] | 0.813 (≈ 3 µM) | In Vivo, double dose (% of mice rescued) ([2]; 2 × 2 mg/kg s.c.): 0% @ 2 × 2 mg/kg; In Vivo, double dose (% of mice rescued) ([2]; 2 × 20 mg/kg s.c.): 0% @ 2 × 20 mg/kg
20 | CCC1=NN(c2cc(Cl)cc(Cl)c2)C(=O)C1=Cc1ccc(C(=O)O)cc1 [Compound 59] | 0.400 (≈ 1.03 µM) | In Vivo, double dose (% of mice rescued) ([2]; 2 × 2 mg/kg s.c.): 12.5% @ 2 × 2 mg/kg; In Vivo, double dose (% of mice rescued) ([2]; 2 × 20 mg/kg s.c.): 12.5% @ 2 × 20 mg/kg
21 | CN1CCC(=C2C(=O)N(c3cc(Cl)cc(Cl)c3)N=C2c2ccccc2)CC1 [Compound 31, 2-(3,5-Dichloro-phenyl)-4-(1-methyl-piperidin-4-ylidene)-5-phenyl-2,4-dihydropyrazol-3-one] | – | MIC [1, 4]: 5 µg/mL (≈ 12.5 µM); In Vivo, double dose (% of mice rescued) ([2]; 2 × 2 mg/kg s.c.): 0% @ 2 × 2 mg/kg; In Vivo, double dose (% of mice rescued) ([2]; 2 × 20 mg/kg s.c.): 0% @ 2 × 20 mg/kg
22 | O=C(NCc1cccc(Cl)c1)Nc1nc(-c2cccc(F)c2)cs1 [Compound 174] | 9.05 (≈ 25 µM) | –
23 | O=C(NCc1cccc(Cl)c1)Nc1nc(-c2ccc(Cl)c(Cl)c2)cs1 [Compound 179] | 5.16 (≈ 12.5 µM) | –
24 | CCOC(=O)C1=NN(c2cc(Cl)cc(Cl)c2)C(=O)C1=CC(=O)O [Compound 64] | 6.25 (≈ 17.5 µM) | –
25 | O=C1C(=NO)C(c2ccccc2)=NN1c1cc(Cl)cc(Cl)c1 [Compound 23, 2-(3,5-Dichloro-phenyl)-5-phenyl-2H-pyrazole-3,4-dione-4-oxime] | – | MIC [1, 4]: 8.35 µg/mL (≈ 25 µM); In Vivo, double dose (% of mice rescued) ([2]; 2 × 2 mg/kg s.c.): 0% @ 2 × 2 mg/kg; In Vivo, double dose (% of mice rescued) ([2]; 2 × 20 mg/kg s.c.): 25% @ 2 × 20 mg/kg
26 | CC1(C)C(=O)N(c2cc(Cl)cc(Cl)c2)N=C1c1ccccc1 [Compound 4] | >8.33 | –
27 | CCC1=NN(c2cc(Cl)cc(Cl)c2)C(=O)C1=NO [Compound 60] | 7.15 (≈ 25 µM) | –

Row | Structure (SMILES) | MIC [1, 3] [µg/mL] | further results
28 | CCN(CC)c1ccc(C=C2C(=O)N(c3cc(Cl)cc(Cl)c3)N=C2c2ccccc2)cc1 [Compound 27] | >12.5 | –
29 | CCC1=NN(c2cc(Cl)cc(Cl)c2)C(=O)C1=Cc1cccc(C(=O)N2CCN(C)CC2)c1 [Compound 68] | 11.8 (≈ 25 µM) | –
30 | O=C1CC(C2CCCCC2)=NN1c1cc(Cl)cc(Cl)c1 [Compound 8] | >7.78 | –
31 | O=C1C(=Cc2c[nH]c3ccccc23)C(c2ccccc2)=NN1c1cc(Cl)cc(Cl)c1 [Compound 39] | >10.0 | –
32 | Cc1ccc(C2=NN(c3cc(Cl)cc(Cl)c3)C(=O)C2)cc1 [Compound 6] | >7.98 | –
33 | CN(C)CCCOc1ccc(C=C2C(=O)N(c3cc(Cl)cc(Cl)c3)N=C2c2ccccc2)cc1 [Compound 28] | >12.5 | –
34 | O=C1CC(c2ccccn2)=NN1c1cc(Cl)cc(Cl)c1 [Compound 48] | >7.65 | –
35 | Cn1cccc1C=C1C(=O)N(c2cc(Cl)cc(Cl)c2)N=C1c1ccccc1 [Compound 32] | 0.320 (≈ 0.808 µM) | –
36 | O=C1C(=Cc2nccs2)C(c2ccccc2)=NN1c1cc(Cl)cc(Cl)c1 [Compound 37] | 12.5 (≈ 31.2 µM) | –
37 | CC1=NN(c2cc(Cl)cc(Cl)c2)C(=O)C1 [Compound 5] | 6.08 (≈ 25 µM) | –
38 | O=C1C(=Cc2ccccn2)C(c2ccccc2)=NN1c1cc(Cl)cc(Cl)c1 [Compound 29] | 12.5 (≈ 31.7 µM) | –
39 | CCC1=NN(c2cc(Cl)cc(Cl)c2)C(=O)C1=Cc1cccc(C(=O)NCCO)c1 [Compound 70] | 5.40 (≈ 12.5 µM) | –
40 | O=C(NCc1cccc(Cl)c1)Nc1nc(-c2ccc(C(F)(F)F)cc2)cs1 [Compound 176] | 5.15 (≈ 12.5 µM) | –
41 | CC1=NN(c2cc(Cl)cc(Cl)c2)C(=O)C1C (stereo not drawn) [Compound 11] | >6.43 | –
42 | O=C1CC(c2ccccc2F)=NN1c1cc(Cl)cc(Cl)c1 [Compound 7] | >8.08 | –
43 | O=C1C2CCCCC2=NN1c1cc(Cl)cc(Cl)c1 (stereo not drawn) [Compound 18] | >7.08 | –
44 | O=C1CC(c2cccnc2)=NN1c1cc(Cl)cc(Cl)c1 [Compound 53] | 7.65 (≈ 25 µM) | –
45 | CCOC(=O)C1=NN(c2cc(Cl)cc(Cl)c2)C(=O)C1=CC1C(=O)Nc2ccccc21 (stereo not drawn) [Compound 62] | 12.5 (≈ 28.1 µM) | –
46 | COC(=O)c1ccccc1C=C1C(=O)N(c2cc(Cl)cc(Cl)c2)N=C1c1ccccc1 [Compound 44] | 12.5 (≈ 27.7 µM) | –
47 | O=C1C(=Cc2cccs2)C(c2ccccc2)=NN1c1cc(Cl)cc(Cl)c1 [Compound 36] | 12.5 (≈ 31.3 µM) | –
48 | O=C(NCc1ccc(Cl)c(Cl)c1)Nc1nc(-c2ccc(Br)cc2)cs1 [Compound 181] | 11.4 (≈ 24.9 µM) | –
49 | O=C1CC(c2ccccc2)=NN1c1cc(C(F)(F)F)cc(C(F)(F)F)c1 [Compound 47] | 2.33 (≈ 6.26 µM) | –
50 | CCC1=NN(c2cc(Cl)cc(Cl)c2)C(=O)C1=CCCC(=O)O [Compound 61] | 8.53 (≈ 25 µM) | –
51 | CCOC(=O)C1=NN(c2cc(Cl)cc(Cl)c2)C(=O)C1 [Compound 67] | 3.76 (≈ 12.5 µM) | –
52 | CC(C)C1=NN(c2cc(Cl)cc(Cl)c2)C(=O)C1 [Compound 13] | >6.78 | –
53 | CCOC(=O)C1=NN(c2cc(Cl)cc(Cl)c2)C(=O)C1=Cc1ccc(C(=O)O)cc1 [Compound 63] | 12.5 (≈ 28.9 µM) | –
54 | O=C1C2CCCC2=NN1c1cc(Cl)cc(Cl)c1 (stereo not drawn) [Compound 12] | >6.73 | –
